Measurements reported in patent US9012651B2, “TRPV3 modulators” (AbbVie Inc., priority 2011, dated 2015).

Target: human TRPV3 receptors (Homo sapiens (Human), UniProt Q8NET8)
Test: Calcium flux assay (FLIPR TETRA), inhibition of the 2-APB response
Assay type: cell-based
Details: recombinant HEK293 cells stably expressing TRPV3, Calcium-4 dye, 2-APB at its EC80
Outline: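 HEK293 cells stably expressing human and mouse TRPV3, plated the day before and dye-loaded 90-120 min in the dark, read on FLIPR Tetra. Peak fluorescence increase over baseline was expressed as percent of the maximal 2-APB response without compound.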

human TRPV3 receptors, sequence (Q8NET8 whole entry): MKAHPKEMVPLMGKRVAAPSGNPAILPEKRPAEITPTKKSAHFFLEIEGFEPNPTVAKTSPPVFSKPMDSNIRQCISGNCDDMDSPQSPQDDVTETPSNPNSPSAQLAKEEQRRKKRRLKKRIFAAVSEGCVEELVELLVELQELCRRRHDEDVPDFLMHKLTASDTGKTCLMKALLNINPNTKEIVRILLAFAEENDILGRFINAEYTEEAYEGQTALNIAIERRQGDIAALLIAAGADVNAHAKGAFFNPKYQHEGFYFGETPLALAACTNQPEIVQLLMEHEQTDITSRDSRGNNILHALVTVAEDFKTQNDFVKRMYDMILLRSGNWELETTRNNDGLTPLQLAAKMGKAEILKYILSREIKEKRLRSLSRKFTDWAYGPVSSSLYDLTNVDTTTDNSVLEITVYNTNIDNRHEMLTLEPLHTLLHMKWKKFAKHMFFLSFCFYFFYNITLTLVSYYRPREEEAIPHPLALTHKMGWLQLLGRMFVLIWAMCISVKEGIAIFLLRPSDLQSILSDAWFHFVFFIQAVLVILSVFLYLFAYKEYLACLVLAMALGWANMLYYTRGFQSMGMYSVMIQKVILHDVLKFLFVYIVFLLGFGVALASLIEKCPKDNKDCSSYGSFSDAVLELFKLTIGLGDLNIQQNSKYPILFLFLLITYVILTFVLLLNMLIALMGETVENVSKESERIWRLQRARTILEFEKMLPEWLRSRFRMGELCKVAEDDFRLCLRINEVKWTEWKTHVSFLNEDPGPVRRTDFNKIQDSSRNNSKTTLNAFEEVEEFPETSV

| Structure (SMILES) | IC50 [µM] |
| --- | --- |
| O[C@H]1CCCC[C@@H]1NCc1ccnc(-c2ccc(C(F)(F)F)cc2)n1 [Example 171, (1S,2S)-2-[({2-[4-(trifluoromethyl)phenyl]pyrimidin-4-yl}methyl)amino]cyclohexanol] | 5.51 |
| O[C@@H]1CCCC[C@@H]1NCc1ccnc(-c2ccc(C(F)(F)F)cc2)n1 [Example 172, (1R,2S)-2-[({2-[4-(trifluoromethyl)phenyl]pyrimidin-4-yl}methyl)amino]cyclohexanol] | 4.93 |
| O[C@@H]1CCC[C@@H]1NCc1ccnc(-c2ccc(C(F)(F)F)cc2)n1 [Example 173, (1R,2S)-2-[({2-[4-(trifluoromethyl)phenyl]pyrimidin-4-yl}methyl)amino]cyclopentanol] | > 20 |
| O[C@H]1CCC[C@@H]1NCc1ccnc(-c2ccc(C(F)(F)F)cc2)n1 [Example 174, (1S,2S)-2-[({2-[4-(trifluoromethyl)phenyl]pyrimidin-4-yl}methyl)amino]cyclopentanol] | > 20 |
| CC(C)(O)CNCc1ccnc(-c2ccc(C(F)(F)F)cc2)n1 [Example 175, 2-methyl-1-[({2-[4-(trifluoromethyl)phenyl]pyrimidin-4-yl}methyl)amino]propan-2-ol] | > 20 |
| OC1(CNCc2ccnc(-c3ccc(C(F)(F)F)cc3)n2)CC1 [Example 176, 1-{[({2-[4-(trifluoromethyl)phenyl]pyrimidin-4-yl}methyl)amino]methyl}cyclopropanol] | > 20 |
| OC1(CNCc2ccnc(-c3ccc(C(F)(F)F)cc3)n2)CCCC1 [Example 177, 1-{[({2-[4-(trifluoromethyl)phenyl]pyrimidin-4-yl}methyl)amino]methyl}cyclopentanol] | > 20 |
| OC1(CNCc2ccnc(-c3ccc(C(F)(F)F)cc3)n2)CCCCC1 [Example 178, 1-{[({2-[4-(trifluoromethyl)phenyl]pyrimidin-4-yl}methyl)amino]methyl}cyclohexanol] | > 20 |
| OC(CNCc1ccnc(-c2ccc(C(F)(F)F)cc2)n1)C(F)(F)F (centres unmarked) [Example 179, 1,1,1-trifluoro-3-[({2-[4-(trifluoromethyl)phenyl]pyrimidin-4-yl}methyl)amino]propan-2-ol] | > 20 |
| C[C@H](O)CNCc1ccnc(-c2ccc(C(F)(F)F)cc2)n1 [Example 180, (2S)-1-[({2-[4-(trifluoromethyl)phenyl]pyrimidin-4-yl}methyl)amino]propan-2-ol] | > 20 |
| CCC(O)CNCc1ccnc(-c2ccc(C(F)(F)F)cc2)n1 (centres unmarked) [Example 181, 1-[({2-[4-(trifluoromethyl)phenyl]pyrimidin-4-yl}methyl)amino]butan-2-ol] | > 20 |
| OC(CNCc1ccnc(-c2ccc(C(F)(F)F)cc2)n1)c1ccccc1 (centres unmarked) [Example 182, 1-phenyl-2-[({2-[4-(trifluoromethyl)phenyl]pyrimidin-4-yl}methyl)amino]ethanol] | > 20 |
| C[C@@H](O)CNCc1ccnc(-c2ccc(C(F)(F)F)cc2)n1 [Example 183, (2R)-1-[({2-[4-(trifluoromethyl)phenyl]pyrimidin-4-yl}methyl)amino]propan-2-ol] | > 20 |
| CC(C)[C@H](CO)NCc1ccnc(-c2ccc(C(F)(F)F)nc2)n1 [Example 184, (2R)-3-methyl-2-[({2-[6-(trifluoromethyl)pyridin-3-yl]pyrimidin-4-yl}methyl)amino]butan-1-ol] | 2.94 |
| OCC1(NCc2ccnc(-c3ccc(C(F)(F)F)nc3)n2)CCCCC1 [Example 185, {1-[({2-[6-(trifluoromethyl)pyridin-3-yl]pyrimidin-4-yl}methyl)amino]cyclohexyl}methanol] | > 20 |
| CC[C@H](CO)NCc1ccnc(-c2ccc(C(F)(F)F)nc2)n1 [Example 186, (2R)-2-[({2-[6-(trifluoromethyl)pyridin-3-yl]pyrimidin-4-yl}methyl)amino]butan-1-ol] | > 20 |
| COCC(CO)NCc1ccnc(-c2ccc(C(F)(F)F)nc2)n1 (centres unmarked) [Example 187, 3-methoxy-2-[({2-[6-(trifluoromethyl)pyridin-3-yl]pyrimidin-4-yl}methyl)amino]propan-1-ol] | > 20 |
| OC[C@H](NCc1ccnc(-c2ccc(C(F)(F)F)nc2)n1)C1CC1 [Example 188, (2R)-2-cyclopropyl-2-[({2-[6-(trifluoromethyl)pyridin-3-yl]pyrimidin-4-yl}methyl)amino]ethanol] | > 20 |
| CC(C)(O)[C@H](CO)NCc1ccnc(-c2ccc(C(F)(F)F)nc2)n1 [Example 189, (2S)-3-methyl-2-[({2-[6-(trifluoromethyl)pyridin-3-yl]pyrimidin-4-yl}methyl)amino]butane-1,3-diol] | > 20 |
| CC(O)C(C)NCc1ccnc(-c2ccc(C(F)(F)F)nc2)n1 (centres unmarked) [Example 190, 3-[({2-[6-(trifluoromethyl)pyridin-3-yl]pyrimidin-4-yl}methyl)amino]butan-2-ol] | 8.15 |
| C[C@@H](O)[C@@H](CO)NCc1ccnc(-c2ccc(C(F)(F)F)nc2)n1 [Example 191, (2R,3R)-2-[({2-[6-(trifluoromethyl)pyridin-3-yl]pyrimidin-4-yl}methyl)amino]butane-1,3-diol] | > 20 |

| Structure (SMILES) | IC50 [µM] |
| --- | --- |
| CC(C)[C@H](CO)NCc1ccnc(-c2ccc(C(F)(F)F)cn2)n1 [Example 192, (2R)-3-methyl-2-[({2-[5-(trifluoromethyl)pyridin-2-yl]pyrimidin-4-yl}methyl)amino]butan-1-ol] | > 20 |
| CC[C@H](CO)NCc1ccnc(-c2ccc(C(F)(F)F)cn2)n1 [Example 194, (2R)-2-[({2-[5-(trifluoromethyl)pyridin-2-yl]pyrimidin-4-yl}methyl)amino]butan-1-ol] | > 20 |
| COCC(CO)NCc1ccnc(-c2ccc(C(F)(F)F)cn2)n1 (centres unmarked) [Example 195, 3-methoxy-2-[({2-[5-(trifluoromethyl)pyridin-2-yl]pyrimidin-4-yl}methyl)amino]propan-1-ol] | > 20 |
| OC[C@H](NCc1ccnc(-c2ccc(C(F)(F)F)cn2)n1)C1CC1 [Example 196, (2R)-2-cyclopropyl-2-[({2-[5-(trifluoromethyl)pyridin-2-yl]pyrimidin-4-yl}methyl)amino]ethanol] | > 20 |
| CC(C)(O)[C@H](CO)NCc1ccnc(-c2ccc(C(F)(F)F)cn2)n1 [Example 197, (2S)-3-methyl-2-[({2-[5-(trifluoromethyl)pyridin-2-yl]pyrimidin-4-yl}methyl)amino]butane-1.3-diol] | > 20 |
| C[C@@H](O)[C@@H](CO)NCc1ccnc(-c2ccc(C(F)(F)F)cn2)n1 [Example 198, (2R,3R)-2-[({2-[5-(trifluoromethyl)pyridin-2-yl]pyrimidin-4-yl}methyl)amino]butane-1,3-diol] | > 20 |
| CC(C)[C@H](CO)NCc1nc(C2CC3CCC2C3)ccc1F (stereo partly drawn) [Example 199, (2R)-2-({[6-(bicyclo[2.2.1]hept-2-yl)-3-fluoropyridin-2-yl]methyl}amino)-3-methylbutan-1-ol] | 1.59 |
| CC1CCC(c2ccc(F)c(CN[C@@H](CO)C(C)C)n2)CC1 (stereo partly drawn) [Example 200, (2R)-2-({[3-fluoro-6-(4-methylcyclohexyl)pyridin-2-yl]methyl}amino)-3-methylbutan-1-ol] | 1.03 |
| CCC1CCC(c2ccc(F)c(CN[C@@H](CO)C(C)C)n2)CC1 (stereo partly drawn) [Example 201, (2R)-2-({[6-(4-ethylcyclohexyl)-3-fluoropyridin-2-yl]methyl}amino)-3-methylbutan-1-ol] | 0.77 |
| CC(C)[C@H](CO)NCc1nc(C2CCC(C)(C)CC2)ccc1F [Example 202, (2R)-2-({[6-(4,4-dimethylcyclohexyl)-3-fluoropyridin-2-yl]methyl}amino)-3-methylbutan-1-ol] | 0.79 |
| CC(C)[C@H](CO)NCc1nc(C2CCC(F)(F)CC2)ccc1F [Example 203, (2R)-2-({[6-(4,4-difluorocyclohexyl)-3-fluoropyridin-2-yl]methyl}amino)-3-methylbutan-1-ol] | 0.53 |
| CC(C)[C@H](CO)NCc1nc(C2CCOCC2)ccc1F [Example 204, (2R)-2-({[3-fluoro-6-(tetrahydro-2H-pyran-4-yl)pyridin-2-yl]methyl}amino)-3-methylbutan-1-ol] | > 20 |
| CC(C)[C@H](CO)NCc1nc(C2CCN(C(=O)OC(C)(C)C)CC2)ccc1F [Example 205, tert-butyl 4-[5-fluoro-6-({[(2R)-1-hydroxy-3-methylbutan-2-yl]amino}methyl)pyridin-2-yl]piperidine-1-carboxylate] | 2.46 |
| CC(C)[C@H](CO)NCc1nc(C2CCCCCC2)ccc1F [Example 206] | 1.23 |
| CC(C)[C@H](CO)NCc1ccnc(-c2ccc(S(=O)(=O)C(F)(F)F)cc2)n1 [Example 207, (2R)-3-methyl-2-{[(2-{4-[(trifluoromethyl)sulfonyl]phenyl}pyrimidin-4-yl)methyl]amino}butan-1-ol] | 0.68 |
| O=S(=O)(c1ccc(-c2nccc(CNC3(CO)CCCCC3)n2)cc1)C(F)(F)F [Example 208, (1-{[(2-{4-[(trifluoromethyl)sulfonyl]phenyl}pyrimidin-4-yl)methyl]amino}cyclohexyl)methanol] | 13.5 |
| CC[C@H](CO)NCc1ccnc(-c2ccc(S(=O)(=O)C(F)(F)F)cc2)n1 [Example 209, (2R)-2-{[(2-{4-[(trifluoromethyl)sulfonyl]phenyl}pyrimidin-4-yl)methyl]amino}butan-1-ol] | 1.47 |
| COCC(CO)NCc1ccnc(-c2ccc(S(=O)(=O)C(F)(F)F)cc2)n1 (centres unmarked) [Example 210, 3-methoxy-2-{[(2-{4-[(trifluoromethyl)sulfonyl]phenyl}pyrimidin-4-yl)methyl]amino}propan-1-ol] | 18.5 |
| CC(C)(O)[C@H](CO)NCc1ccnc(-c2ccc(S(=O)(=O)C(F)(F)F)cc2)n1 [Example 211, (2S)-3-methyl-2-{[(2-{4-[(trifluoromethyl)sulfonyl]phenyl}pyrimidin-4-yl)methyl]amino}butane-1,3-diol] | > 20 |
| C[C@@H](O)[C@@H](CO)NCc1ccnc(-c2ccc(S(=O)(=O)C(F)(F)F)cc2)n1 [Example 212, (2R,3R)-2-{[(2-{4-[(trifluoromethyl)sulfonyl]phenyl}pyrimidin-4-yl)methyl]amino}butane-1,3-diol] | 2.53 |
